EC50 data for 49 compounds are collected here from PubChem BioAssay AID726 (The Scripps Research Institute Molecular Screening Center, 2007).

Structures are written as SMILES. Active and inactive are the calls of the source.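 Rule for the calls: active = EC50 at or below 10 µM, fitted or read by hand from inhibition at single concentrations; inactive = EC50 above 10 µM.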

One may read the EC50 as the midpoint of the concentration-response curve.

The target in the test is 5-hydroxytryptamine receptor 1E (Homo sapiens) (UniProt P28566). Description: 5-HT1E receptor agonist potency, dose response, cell-based (AID 726). To be noted: CHO 5-HT1E/Ga15 NFAT-bla, FRET reporter.
Sequence of 5-hydroxytryptamine receptor 1E (Homo sapiens) (P28566 whole entry, looked up): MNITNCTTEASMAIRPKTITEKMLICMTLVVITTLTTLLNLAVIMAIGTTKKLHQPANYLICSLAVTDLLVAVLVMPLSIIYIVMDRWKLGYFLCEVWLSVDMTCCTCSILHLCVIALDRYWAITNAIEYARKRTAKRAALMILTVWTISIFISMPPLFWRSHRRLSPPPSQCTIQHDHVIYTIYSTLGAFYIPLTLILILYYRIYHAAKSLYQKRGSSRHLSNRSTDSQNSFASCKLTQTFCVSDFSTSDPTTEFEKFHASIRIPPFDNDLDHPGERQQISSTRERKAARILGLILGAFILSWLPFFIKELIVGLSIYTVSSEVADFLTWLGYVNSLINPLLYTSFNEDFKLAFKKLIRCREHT

With `O=C(O)C1CCCCC1C(=O)NCCc1c[nH]c2ccccc12` (centres undefined), the EC50 is 765 nM.

As to `CSc1nc2ccc(NC(=O)C3CCCO3)cc2s1` (centres undefined), the EC50 is > 50000 nM (inactive).

In the case of `COc1ccc(N(CC(=O)NC2CCCC2)C(=O)Cn2nnc(-c3ccc(C)cc3)n2)cc1OC`, the EC50 was > 50000 nM (inactive).

Consider `CCCCN(C)CCCNC(=O)Cn1c(=O)sc2ccccc21`, for which the EC50 is 3500 nM.

For `Cc1cc(C(C)(C)C)cc(C)c1CC1=NCCN1`, the EC50 is 87 nM.

`C[N+]1=C2CCCCCN2C(O)(c2ccccc2)C1` (centres undefined): the EC50 is 1330 nM.

Take `COc1ccc(CN2CCN(c3ccccc3F)CC2)c(OC)c1`: the EC50 was > 50000 nM (inactive).

As to `CCN1CC=C(c2c[nH]c3ccccc23)CC1`, the EC50 is 23.9 nM.

Consider `CC(CCc1ccccc1)NC(=O)CSc1nc(N)cc(N)n1` (centres undefined), for which the EC50 was > 50000 nM (inactive).

Consider `COc1cc(CN2CCN(c3cccc(C)c3C)CC2)cc(OC)c1O`, for which the EC50 was > 50000 nM (inactive).

Consider `Cn1cc(/C(Cc2ccccc2)=N\O)c2ccccc21`, for which the EC50 was > 50000 nM (inactive).

For the compound `CN(C)CCOC(=O)c1cn(Cc2ccccc2)c2ccccc12`, the EC50 is 493 nM.

For the compound `Cc1[nH]c2ccccc2c1C1=CCNCC1`, the 50% effective concentration (EC50) is 194 nM.

With `CCOC(=O)c1c(C)nc(-c2ccccc2)nc1NC(=O)CC`, the EC50 was > 50000 nM (inactive).

Consider `CN1CC=C(c2c[nH]c3ccccc23)CC1`, for which the EC50 is 6.78 nM.

As to `O=C(Nc1cccc(-c2cn3ccsc3n2)c1)c1ccccc1`, the EC50 is > 50000 nM (inactive).

Consider `CCCCN(CC)Cc1ccc(CNC(=O)Nc2ccc(OC)cc2OC)o1`, for which the EC50 is 1830 nM.

As to `CCCCc1ccc2[nH]cc(CCN)c2c1`, the EC50 is 11.3 nM.

`Cc1[nH]c2c(Cl)cccc2c1CCN`: the EC50 was 677 nM.

As for `NCCc1c[nH]c2ccc(F)cc12`, the EC50 was 484 nM.

In the case of `CCOC(=O)C1CCN(C(=O)Cc2c(C(=O)O)n(C)c3ccccc23)CC1`, the EC50 is > 50000 nM (inactive).

`Cc1c(CN2CCN(c3cccc(C(F)(F)F)c3)CC2)c(=O)n(-c2ccccc2)n1C`: the EC50 is 1840 nM.

In the case of `Cc1cc(C(C)(C)C)c(O)c(C)c1CC1=NCCN1`, the EC50 was 99 nM.

Take `Cc1cccc(N2CCN(C(=O)Cc3c(C(=O)O)[nH]c4ccc(Cl)cc34)CC2)c1C`: the EC50 is > 50000 nM (inactive).

Regarding `Cc1cccc(NC(=O)C2CCCN(C(=O)Nc3ccccc3)C2)c1C` (centres undefined), the EC50 was > 50000 nM (inactive).

As for `CCOC(=O)C1CCN(C(c2cccnc2)c2c(NC(=O)c3ccco3)sc(C)c2C)CC1` (centres undefined), the EC50 is > 50000 nM (inactive).

`Cc1[nH]c2c(C(F)(F)F)cccc2c1CCN`: the EC50 is 817 nM.

Take `C1=C(c2c[nH]c3ccccc23)CCNC1`: the EC50 is 15.7 nM.

With `c1ccc2sc(C3CCCNC3)nc2c1` (centres undefined), the EC50 was 186 nM.

For the compound `O=C(NCc1ccccc1)NC1(C(=O)N2CCCC2)CCCCC1`, the EC50 is > 50000 nM (inactive).

Regarding `CCc1nn(C(C)C(=O)NCCN2CCN(c3cccc(C)c3C)CC2)c(=O)c2cc3occc3n12` (centres undefined), the EC50 is 2320 nM.

With `CC[C@@H](CO)NC(=O)[C@@H]1C=C2c3cccc4c3c(cn4C)C[C@H]2N(C)C1`, the EC50 is 37.5 nM.

In the case of `O=C(COC(=O)CCC1CCCC1)Nc1ccc(Cl)cn1`, the EC50 was > 50000 nM (inactive).

For the compound `CC1CN(c2nnnn2-c2ccccc2)CC(C)O1` (centres undefined), the EC50 was > 50000 nM (inactive).

With `CCc1ccc(NC(=O)Cn2c(SC)nc3ccccc32)cc1`, the EC50 is > 50000 nM (inactive).

`CCOC(=O)C1=C(C)NC(=O)NC1c1ccc(OCC(=O)Nc2ccccc2)c(OC)c1` (centres undefined): the EC50 is > 50000 nM (inactive).

As to `CCN(CC)c1nc(N2CCOCC2)c(C#N)c2c1CN(C)CC2`, the EC50 is 1750 nM.

As for `COC(=O)CC(=O)Cc1nc(N)nc(Nc2ccc(C)c(C)c2)n1`, the EC50 is > 50000 nM (inactive).

For the compound `CCOC(=O)c1cc2ccc(OC(=O)c3ccco3)cc2oc1=O`, the EC50 is 7500 nM.

Consider `O=S(=O)(c1cccc(Cl)c1)N1CCCC1`, for which the EC50 is > 50000 nM (inactive).

For the compound `Cn1c(-c2ccccc2)cnc1SCc1nc2ccccc2c(=O)[nH]1`, the EC50 is > 50000 nM (inactive).

Regarding `CN1CCN2c3ccccc3Cc3ccccc3C2C1` (centres undefined), the EC50 is 37.8 nM.

As for `CC(=O)Nc1ccc(S(=O)(=O)N(C)c2ccc(O)cc2)cc1`, the EC50 was > 50000 nM (inactive).

Consider `CN(C)CCCn1c(NC(=O)C2CCCCC2)nc2ccccc21`, for which the EC50 is 469 nM.

Turning to `Cc1noc(C)c1COc1ccc(C(=O)OC(C)C(=O)Nc2ccc(N3CCOCC3)cc2)cc1` (centres undefined), the EC50 is > 50000 nM (inactive).

In the case of `CN1CCN(/C(=N\O)c2nonc2N)CC1`, the EC50 was 1170 nM.

With `c1ccc(N2CCN(Cc3cn4cccnc4n3)CC2)cc1`, the EC50 is 1070 nM.

As for `CNCCc1c[nH]c2ccccc12`, the EC50 is 105 nM.

Regarding `CCOC(=O)c1oc2ccccc2c1NC(=O)c1cc(OC)cc(OC)c1`, the EC50 was > 50000 nM (inactive).
